Reference: patent publication US20240141017A1, “FLUORESCENT BIOSENSORS AND METHODS OF USE FOR DETECTING CELL SIGNALING EVENTS” (THE REGENTS OF THE UNIVERSITY OF MICHIGAN, priority 2021, published 2024)

Tests used:
[1] = system: M-SPOTIT2; type: cell-based; details: pH 11
[2] = molecular target: MOR (Homo sapiens, UniProt P35372); details: previous studies; cited from earlier work
[3] = molecular target: T1, K-SPOTIT1.0 (Homo sapiens, UniProt P41145); type: cell-based
T1 construct: expressed in transfected cells; host or cells: HEK293T (lentiviral infection)

[4] = molecular target: kappa-opioid receptor (KOR) as in K-SPOTIT1.0 (Homo sapiens (Human)) (UniProt P41145); assay: cell-based or functional assay

T1 sequence (P41145 with tags, fused parts or gaps): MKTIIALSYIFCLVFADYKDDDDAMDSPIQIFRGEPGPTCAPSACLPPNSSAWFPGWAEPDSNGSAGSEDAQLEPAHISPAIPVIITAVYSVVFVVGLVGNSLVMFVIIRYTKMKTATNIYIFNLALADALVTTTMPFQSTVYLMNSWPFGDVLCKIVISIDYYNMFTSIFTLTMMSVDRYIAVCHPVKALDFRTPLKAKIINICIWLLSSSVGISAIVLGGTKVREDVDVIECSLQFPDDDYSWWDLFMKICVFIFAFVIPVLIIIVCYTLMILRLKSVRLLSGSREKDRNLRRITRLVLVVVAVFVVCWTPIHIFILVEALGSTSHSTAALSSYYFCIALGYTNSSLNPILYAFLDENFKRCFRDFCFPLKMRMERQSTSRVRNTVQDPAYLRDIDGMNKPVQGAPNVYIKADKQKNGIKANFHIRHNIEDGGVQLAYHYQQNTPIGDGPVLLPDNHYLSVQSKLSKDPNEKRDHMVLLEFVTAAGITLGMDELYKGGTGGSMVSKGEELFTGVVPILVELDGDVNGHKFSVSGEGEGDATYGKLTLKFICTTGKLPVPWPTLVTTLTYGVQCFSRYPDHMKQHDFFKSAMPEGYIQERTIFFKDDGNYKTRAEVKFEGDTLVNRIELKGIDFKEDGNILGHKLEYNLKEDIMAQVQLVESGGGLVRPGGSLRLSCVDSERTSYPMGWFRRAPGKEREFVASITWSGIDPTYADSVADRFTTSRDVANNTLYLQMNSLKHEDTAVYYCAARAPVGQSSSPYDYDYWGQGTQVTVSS
MOR, sequence (P35372 whole entry): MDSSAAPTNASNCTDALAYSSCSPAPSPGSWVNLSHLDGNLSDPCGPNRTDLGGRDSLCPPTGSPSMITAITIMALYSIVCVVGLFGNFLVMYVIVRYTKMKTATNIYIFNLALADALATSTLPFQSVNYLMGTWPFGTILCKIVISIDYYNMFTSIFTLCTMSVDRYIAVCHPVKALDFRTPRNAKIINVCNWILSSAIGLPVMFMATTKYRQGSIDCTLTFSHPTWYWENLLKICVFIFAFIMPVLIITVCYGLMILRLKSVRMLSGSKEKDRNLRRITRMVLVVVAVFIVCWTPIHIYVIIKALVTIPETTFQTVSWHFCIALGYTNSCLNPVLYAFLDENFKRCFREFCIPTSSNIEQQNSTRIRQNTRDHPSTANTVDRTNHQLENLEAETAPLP

Row | Molecule | SNR [1] | other results
1 | O=C(Cc1ccc(Cl)c(Cl)c1)N1CCCCC1CN1CCCC1 (stereo not drawn) [BRL52537] | much lower SNR | –
2 | CC(C)C[C@@H](NC(=O)[C@H](Cc1ccccc1)NC(=O)CNC(=O)[C@@H](C)NC(=O)[C@@H](N)Cc1ccc(O)cc1)C(=O)O [DADLE] | – | affinity for MOR [2]: weak affinity
3 | Oc1ccc2c3c1O[C@H]1c4[nH]c5c(c4C[C@@]4(O)[C@@H](C2)N(CC2CC2)CC[C@]314)C[C@@]1(O)[C@H]2Cc3ccc(O)c4c3[C@@]1(CCN2CC1CC1)[C@H]5O4 [Nor-BNI, nor-binaltorphimine] | – | fluorescence before and after addition of KOR antagonist post fluorophore maturation [3]: Comparable fluorescence; fluorescence increase when antagonist added after initial 30-second agonist stimulation, vs Nor-BNI only cells [3]: No significant fluorescence increase
4 | COC(=O)[C@@H]1C[C@H](OC(C)=O)C(=O)[C@H]2[C@@]1(C)CC[C@H]1C(=O)O[C@H](c3ccoc3)C[C@]21C [Sal A, Salvinorin A] | much lower SNR | –
5 | CN(C)C(=O)C(CCN1CCC(O)(c2ccc(Cl)cc2)CC1)(c1ccccc1)c1ccccc1 [loperamide] | highest SNR | –
6 | CN1CC[C@]23c4c5ccc(O)c4O[C@H]2[C@@H](O)C=C[C@H]3[C@H]1C5 [morphine] | highest SNR | –
7 | C=CCN1CC[C@]23c4c5ccc(O)c4O[C@H]2C(=O)CC[C@@]3(O)[C@H]1C5 [naloxone] | much lower SNR | –
8 | COc1ccc2c3c1O[C@H]1C(=O)CC[C@@]4(O)[C@@H](C2)N(C)CC[C@]314 [oxycodone] | highest SNR | –
9 | Gαi protein mimic nanobody 39 (Nb39) (VHH) VHH: QVQLVESGGGLVRPGGSLRLSCVDSERTSYPMGWFRRAPGKEREFVASITWSGIDPTYADSVADRFTTSRDVANNTLYLQMNSLKHEDTAVYYCAARAPVGQSSSPYDYDYWGQGTQVTVSS | – | cpGFP fluorescence of K-SPOTIT1.0 after a 30-second pulse of Sal A, then 24 hours of incubation [4]: 4.2 fold; cpGFP fluorescence of K-SPOTIT1.0 after longer Sal A incubation [4]: 12 fold; cpGFP fluorescence of K-SPOTIT1.0 in HEK293T cells, 24 hours with 10 µM Salvinorin A against no Sal A [4]: 10.9 fold
